Measurements reported in patent US8119686B2, “Spiroquinone compound and pharmaceutical composition” (Hykes Laboratories LLC, priority 2006, dated 2012).

Key:
Type in all cases: cell-based, human
ABCA1 = assay: Increase of ABCA1 in THP-1 cell (membrane fraction, SDS-PAGE and immunoblotting); settings: PMA-differentiated THP-1 macrophages, 24 h culture with compound; relative to cells treated with probucol spiroquinone (=100)
Experimental: THP-1 cells (human leukemia cell; manufactured by American Type Culture Collection) were cultured for 24 hours in 10% FBS-RPMI1640 culture medium (manufactured by Sigma) in the presence of PMA (phorbol myristate acetate; 3.2×10^−7 M; manufactured by Wako Pure Chemical Industries, Ltd.) to obtain differentiated macrophages. The resulting cells were washed with RPMI1640 (manufactured by Sigma) and then added to RPMI1640 culture medium (manufactured by Sigma) with BSA (manufactured by Sigma) having a concentration of 0.2%. The spiroquinone derivatives obtained in Examples 1, 6 and 10 was independently added to the culture medium. Each sample was cultured for 24 hours in the presence or absence of apoAI, and then the ABCA1 expression in the cells was assayed in accordance with the following method. Incidentally, the spiroquinone derivative was dissolved in 2-butabol, and the solution was added to the culture medium so that the final concentration of the spiroquinone derivative was 0.5%.
The cells were washed with PBS (phosphate buffered saline; manufactured by Sigma). The washed cells were collected in 0.5 mM Tris-HCl (pH 8.5) containing a protease inhibitor (manufactured by Sigma), stirred, and allowed to stand on ice for 15 minutes. The resulting cell suspension was centrifuged at 470×g for 5 minutes to precipitate nuclear fractions. Thereafter, the supernatant was centrifuged at 316,000×g for 30 minutes to precipitate membrane fractions. The membrane fractions (15 μg protein) were used to conduct SDS-PAGE and Immunoblotting. The obtained band of the ABCA1 protein was converted into digital data by using an image analysis software (manufactured by […], Photoshop). The relative ratio (%) of the ABCA1 expression level of the cells treated with the spiroquinone derivative to that of the cells treated with probucol spiroquinone was calculated to evaluate the ABCA1 expression activity of the test compounds.

ABCA1 mRNA = assay: mRNA expression of intracellular ABCA1 (Real Time PCR); settings: for mRNA Expression level of ABCA1 (relative ratio %): THP-1 macrophages, standardized to GAPDH mRNA, relative to untreated cells (=100)
Experimental: The cells washed with PBS in Test Example 1 were used. From the cells, RNA was extracted with ISOGEN (manufactured by Wako Pure Chemical Industries, Ltd.). By using a Super Script First-Strand Synthesis System for RT-PCR (manufactured by Invitrogen) cDNA was prepared, and the mRNA expression of ABCA1 was assayed by Real Time PCR using ABCA1 specific primer and Power SYBR Green PCR Master Mix (manufactured by Applied Biosystems).
Moreover, the mRNA expression of GAPDH as an internal control was also assayed simultaneously. The mRNA expression level of ABCA1 was standardized as a ratio (%) relative to the mRNA expression level of GAPDH. The mRNA expression level of ABCA1 in the cells treated with the test compound relative to that in untreated cells was calculated and evaluated.

THP-1 cells = assay: Acceleration of HDL production reaction (apoA-I-dependent cholesterol release into culture medium); settings: for apoA-1-dependent HDL cholesterol release, increase as compared with probucol spiroquinone: THP-1 cells, fold versus cells treated with probucol spiroquinone; for HDL cholesterol release (relative ratio %): THP-1 macrophages, culture medium after 24 h culture, apoA-I-dependent, relative to cells treated with probucol spiroquinone (=100)
Experimental: The culture medium after 24-hour culture in the presence or absence of apoAI in Test Example 1 was used to examine cholesterol release into the culture medium by the apoA-1-dependent HDL-generating reaction.
Specifically, the culture medium was collected in a 1.5 ml tube and centrifuged at 316,000×g for 5 minutes, and the supernatant was transferred in a glass tube. To the supernatant was added a mixture of chloroform and methanol (volume ratio=2/1) (manufactured by Wako Pure Chemical Industries, Ltd.). The resulting mixture was stirred and further centrifuged at 1,300×g for 5 minutes. After the centrifugation, the resulting water layer was removed. Water was added to the remaining organic layer, and the mixture was stirred again and centrifuged at 1,300×g for 5 minutes. After the centrifugation, the resulting water layer was removed. The organic layer was evaporated to dryness, and cholesterol remaining in the glass tube was quantitatively determined according to an enzymatic method. The relative ratio (%) of the amount of cholesterol release as HDL from the cells treated with the spiroquinone derivative to that from the cells treated with probucol spiroquinone was calculated to evaluate the HDL cholesterol release from the cells treated with the test compounds.

CCCC1(C)SC2(C=C(C(C)(C)C)C(=O)C(C(C)(C)C)=C2)C2(C=C(C(C)(C)C)C(=O)C(C(C)(C)C)=C2)S1 [Example 6, 14-methyl-2,4,9,11-tetrakis(t-butyl)-14-n-propyl-13,15-dithiadispiro[5.0.5.3]pentadeca-1,4,8,11-tetraene-3,10-dione]
ABCA1 expression level (relative ratio %) (ABCA1): 176% | mRNA expression of ABCA1 in treated THP-1 cells (in words) (ABCA1 mRNA; THP-1 cells): not found | mRNA Expression level of ABCA1 (relative ratio %) (ABCA1 mRNA): 51% | apoA-1-dependent HDL cholesterol release, increase as compared with probucol spiroquinone (THP-1 cells): about 1.3 times | HDL cholesterol release (relative ratio %) (THP-1 cells): 134%

CC1(C)SC2(C=C(C(C)(C)C)C(=O)C(C(C)(C)C)=C2)C2(C=C(C(C)(C)C)C(=O)C(C(C)(C)C)=C2)S1 [Probucol spiroquinone, reference compound]
ABCA1 expression level (relative ratio %) (ABCA1): 100% | mRNA Expression level of ABCA1 (relative ratio %) (ABCA1 mRNA): 65% | HDL cholesterol release (relative ratio %) (THP-1 cells): 100%

CC(C)(C)C1=CC2(C=C(C(C)(C)C)C1=O)SC1(CCCC1)SC21C=C(C(C)(C)C)C(=O)C(C(C)(C)C)=C1 [Example 10, 9,11,15,17-tetrakis(t-butyl)-6,19-dithiadispiro[4.1.5^7.0.5^13.1^5]nonadeca-8,11,14,17-tetraene-10,16-dione]
ABCA1 expression level (relative ratio %) (ABCA1): 309% | apoA-1-dependent HDL cholesterol release, increase as compared with probucol spiroquinone (THP-1 cells): about 1.3 times | HDL cholesterol release (relative ratio %) (THP-1 cells): 128%

CC1(CCC(=O)O)SC2(C=C(C(C)(C)C)C(=O)C(C(C)(C)C)=C2)C2(C=C(C(C)(C)C)C(=O)C(C(C)(C)C)=C2)S1 [Example 1, 14-carboxyethyl-14-methyl-2,4,9,11-tetrakis(t-butyl)-13,15-dithiadispiro[5.0.5.3]pentadeca-1,4,8,11-tetraene-3,10-dione]
ABCA1 expression level (relative ratio %) (ABCA1): 238%
